In ChEMBL document CHEMBL1121972, “Spasmolytic agents. 2. 1,2,3,4-Tetrahydro-2-naphthylamine derivatives” (1982):

Assays:
Canis familiaris [1] = test: Antispasmodic activity was measured on colonic contraction in anesthetized dog after iv administration of a dose of 0.1 mg/kg; assay type: functional, Canis lupus familiaris
Canis familiaris [2] = test: Antispasmodic activity was measured on stomach contraction in anesthetized dog after iv administration of a dose of 0.1 mg/kg; assay type: functional, Canis lupus familiaris

| Compound | Activity (Canis familiaris [1]) | Activity (Canis familiaris [2]) |
| --- | --- | --- |
| CCN(CCCOC(=O)c1ccc(OC)c(OC)c1)C1CCc2cc(OC)ccc2C1.Cl (stereo not given) | -1 | <5 |
| CCN(CCOCCOC(=O)c1ccc(OC)c(OC)c1)C1CCc2cc(OC)ccc2C1.Cl (stereo not given) | 0 | <5 |
| CCN(CCCCOC(=O)c1ccc(OC)c(OC)c1)C1CCc2c(OC)ccc(OC)c2C1.Cl (stereo not given) | 9.2 | <5 |
| COc1ccc2c(c1)CCC(N(CCCCOC(=O)c1ccc(OC)c(OC)c1)C(C)C)C2.Cl (stereo not given) | 19.6 | <5 |
| CCN(CCCCCCOC(=O)c1ccc(OC)c(OC)c1)C1CCc2ccccc2C1.Cl (stereo not given) |  | 31.3 |
| CCN(CCCCOC(=O)c1cc(OC)c(OC)c(OC)c1)C1CCc2cc(OC)ccc2C1.CS(=O)(=O)O (stereo not given) | 1.1 | <5 |
| CCN(CCCCO)C1CCc2cc(OC)ccc2C1 (stereo not given) | 2.6 | <5 |
| CCCOc1ccc2c(c1)CCC(N(CC)CCCCOC(=O)c1ccc(OC)c(OC)c1)C2.Cl (stereo not given) | 1.4 | <5 |
| CCOc1cc(C(=O)OCCCCN(CC)C2CCc3cc(OC)ccc3C2)cc(OCC)c1OCC.Cl (stereo not given) | -6.8 | <5 |
| CCN(CCOC(=O)c1ccc(OC)c(OC)c1)C1CCc2cc(OC)ccc2C1.Cl (stereo not given) | 11.4 | <5 |
| CCN(CCCCOCc1ccc(OC)c(OC)c1)C1CCc2cc(OC)ccc2C1 (stereo not given) | -4.3 | <5 |
| CCN(CCCCOC(=O)c1ccc(OC)c(OC)c1)C1CCc2c(cccc2OC)C1.Cl (stereo not given) | 13.3 | <5 |
| CCN(CCCCOC(=O)c1ccc2c(c1)OCO2)C1CCc2cc(OC)ccc2C1.Cl (stereo not given) | 1.3 | <5 |
| CCN(CCCCOC(=O)c1ccc(OC)c(OC)c1)C1CCc2ccc(OC)cc2C1.Cl (stereo not given) |  | 18.1 |
| CCOc1ccc2c(c1)CCC(N(CC)CCCCOC(=O)c1ccc(OC)c(OC)c1)C2.Cl (stereo not given) | 7.4 | <5 |
| CCN(CCCCOC(=O)c1ccc(OC)c(OC)c1)C(C)Cc1ccc(OC)cc1 (stereo not given) [MEBEVERINE] |  | 2.6 |
| CCN(CCCCOC(=O)c1ccc(OC)cc1)C1CCc2cc(OC)ccc2C1.Cl (stereo not given) | 8.1 | <5 |

| Compound | Activity (Canis familiaris [1]) | Activity (Canis familiaris [2]) |
| --- | --- | --- |
| CCN(CCCCCCOC(=O)c1ccc(OC)c(OC)c1)C1CCc2cc(OC)c(OC)cc2C1.Cl (stereo not given) |  | 64.5 |
| CCN(CCCCCCCCCCOC(=O)c1ccc(OC)c(OC)c1)C1CCc2cc(OC)ccc2C1.Cl (stereo not given) | 13.7 | <5 |
| CCN(CCCCOC(=O)c1ccc(OC)c(OC)c1)C1CCc2ccccc2C1.Cl (stereo not given) |  | <5 |
| CCN(CCCCOC(=O)c1ccc(OC)c(OC)c1)C1CCc2cc3c(cc2C1)OCO3.Cl (stereo not given) | 13.4 | <5 |
| CCN(CCCCOC(=O)c1ccc(OC)c(OC)c1)C1CCc2cc(OC)ccc2C1.Cl (stereo not given) |  | 6.6 |
| CCN(CC(C)(C)COC(=O)c1ccc(OC)c(OC)c1)C1CCc2cc(OC)ccc2C1.Cl (stereo not given) | 15.8 | <5 |
| COc1ccc2c(c1)CCC(N(C)CCCCOC(=O)c1ccc(OC)c(OC)c1)C2.Cl (stereo not given) | -4.9 | <5 |
| CCCN(CCCCOC(=O)c1ccc(OC)c(OC)c1)C1CCc2cc(OC)ccc2C1.Cl (stereo not given) |  | <5 |
| CCN(CCCCOC(=O)c1ccccc1)C1CCc2cc(OC)ccc2C1.Cl (stereo not given) | -2.6 | <5 |
| CCN(CCCCCCOC(=O)c1ccc(OC)c(OC)c1)C1CCc2cc(OC)ccc2C1.Cl (stereo not given) |  | <5 |
| CCN(CCCCCCO)C1CCc2cc(OC)ccc2C1 (stereo not given) | 5.2 |  |
| CCOc1ccc(C(=O)OCCCCN(CC)C2CCc3cc(OC)ccc3C2)cc1.Cl (stereo not given) | -2.5 | <5 |
| CCN(CCCCOC(=O)c1c(OC)cccc1OC)C1CCc2cc(OC)ccc2C1.Cl (stereo not given) | -8.7 | <5 |
| CCN(CCCCOC(=O)c1ccc(OC)c(OC)c1)C1CCc2cccc(OC)c2C1.Cl (stereo not given) |  | 21.3 |
| CCCOc1ccc(C(=O)OCCCCN(CC)C2CCc3cc(OC)ccc3C2)cc1.Cl (stereo not given) | 10.2 | <5 |
| CCN(CCCCOC(=O)c1ccc(OC)c(OC)c1)C1CCc2cc(OC)c(OC)cc2C1.Cl (stereo not given) |  | 11.8 |
